3 substances from US8008452B2, “Phosphorylated Ndr kinase” (Novartis Forschungesstiftung, Zweigniederlassung Friedrich …, priority 2002, dated 2011) can be followed below.

For one data set, the system named is HA-NDR1. The data set is described as follows: HA-NDR1 kinase assay on 12CA5 immunoprecipitates from transfected, treated COS-1 cells. Format: cell-based, human. Details: kinase activity of HA-NDR1 variants, −OA: unit not given here. The note with it: COS-1 cells; for kinase activity of HA-NDR1 variants, +OA: 1 microM okadaic acid 1 h; for kinase activity of HA-NDR1 variants, −OA: solvent alone 1 h. As to the method: In some experiments, the cells were treated for 60 min with 1 microM okadaic acid in 0.1% N,N-dimethylformamide (DMF) (Alexis Corp.), 50 microM BAPTA-AM (1,2-bis (o-aminophenoxy) ethane-N,N,N′,N′-tetraacetic acid tetra (acetoxy-methyl)ester) in 0.1% diimethylsulfoxide (DMSO; Sigma), or 20 microM thapsigargin in 0.1% DMSO (Alomone) 24 hours after transfection.
Transfected and treated COS-1 cells were washed once with ice-cold PBS, and harvested by rubber policeman in 1 ml ice-cold PBS containing 1 mM Na3VO4 and 20 mM beta-glycerophosphate before lysis in 500 microliters of IP buffer (20 mM Tris-HCl pH 8.0, 150 mM NaCl, 1% Nonidet P-40, 10% glycerol, 1 mM Na3VO4, 20 mM beta-glycerolphosphate, 1 microM microcystin-LR, 50 mM NaF, 0.5 mM PMSF, 4 microM leupeptin, 1 mM benzamidine, and 1 tablet/10 ml IP of Complete protease inhibitors (Roche)). Lysates were centrifuged at 20 000 g for 20 min and triplicate aliquots (200 microg) of supernatant were precleared with protein A-Sepharose (Amersham Pharmacia Biotech) for 60 min and mixed subsequently for 3 h at 4° C. with 12CA5 antibody prebound to protein A-Sepharose (˜1 microg antibody bound to 2 microl beads). The beads were then washed twice with IP buffer, once for 10 min with IP buffer containing 1 M NaCl, once again for 10 min with IP buffer, and finally twice with 20 mM Tris-HCl pH 7.5 containing 4 microM leupeptin and 1 mM benzamidine. Thereafter, beads were resuspended in 30 microliters buffer containing 20 mM Tris-HCl pH 7.5, 10 mM MgCl2, 1 mM DTT, 100 microM [gamma-^32P]ATP (˜0.1 microCi/microliter), 1 microM cAMP-dependent protein kinase inhibitor peptide PKI (Bachem), 4 microM leupeptin, 1 mM benzamidine, 1 microM microcystin-LR, and 1 mM NDR1 substrate peptide ([…]). After 60 min incubation at 30° C., 15 microliters of supernatant were removed, and phosphate incorporation into the substrate peptide determined as described for GST-NDR1 above.
COS-1 cells expressing either wild type HA-NDR1 or the indicated mutants were treated for 1 h with 1 microM okadaic acid or with solvent alone. HA-tagged NDR kinase variants were then immunoprecipitated (out of 100 microgram of detergent extracts) with 12CA5 monoclonal antibody and assayed for kinase activity by a peptide kinase assay as described above.
Mock-transfected or HA-NDR1-expressing COS-1 cells were treated for 1 h with […], 50 microM BAPTA-AM, and […] or with solvent (0.1% DMF or 0.1% DMSO) alone. 12CA5 immunoprecipitates (out of 100 microgram protein extract) were then assayed using the peptide kinase assay for NDR1 kinase activity.
To test whether hMOB1 plays a role in NDR activation, myc-hMOB1 or the empty vector was cotransfected with HA-NDR1 in COS1 cells and treated with OA. 12CA5 immunoprecipitates were then assayed using the peptide kinase assay for HA-NDR kinase activity. […] GST-MOB and GST respectively was added to immunoprecipitated HA-NDR and kinase reaction were performed. The reactions were resolved on a 10% SDS PAGE and the radioactivity visualised by using a phosphoimager.

Another data set concerns GST-NDR1. The data set is described as follows: GST-NDR1 in vitro autophosphorylation, incorporated 32P by Cerenkov counting. Format: biochemical, human. The note with it: for amount of incorporated 32P (autophosphorylation), −S100B / amount of incorporated 32P (autophosphorylation), +S100B: GST-NDR1 variant; for amount of incorporated 32P (autophosphorylation), −S100B: 1 microgram, autophosphorylated 2 hours without further additions, pmol ATP/pmol GST-NDR1; for amount of incorporated 32P (autophosphorylation), +S100B: 2 hours in the presence of 1 mM CaCl2 and 10 microM bovine S100B, in pmol ATP/pmol GST-NDR1; for autophosphorylation rate of GST-NDR1 mutant (in words): compared with wild type. As to the method:
BL21-DE3-pRep4 E. coli strain was transformed with the pGEX-2T_NDR1 wild type or mutant plasmids. BL21-DE3 is a protease-deficient E. coli strain and pRep4 is a Laclq repressor-bearing plasmid both available commercially. Optionally, if desired, an E. coli strain comprising GroESL can be used, which expresses a chaperone protein that stabilizes the kinase. Mid-logarithmic phase cells were induced with 0.5 mM isopropyl beta-D-thiogalactopyranoside (IPTG) for 4 hours at 30° C. Bacteria were lysed using a French press in the presence of 1 mg/ml lysosyme, and the fusion proteins were purified on glutathione-agarose (Amersham Pharmacia Biotech) as described by the manufacturers. Recombinant proteins were assayed for kinase activity as described below and autophosphorylation was determined after SDS-PAGE separation either by Cerenkov counting or by exposure to a PhosphorImager screen followed by analysis with ImageQuant software (Molecular Dynamics).
In brief, 1 microgram of purified GST-NDR1 (in solution ˜0.5 microM) wild type, kinase dead (K118A), and alanine mutants of phosphorylation residues Thr74, Ser281, and Thr444 were autophosphorylated for 2 hours in vitro without further additions or in the presence of 1 mM CaCl2 and 10 microM bovine S100B. Proteins were visualized on SDS gels using Coomassie Blue R-350 stained SDS-PAGE gel, and [gamma-^32P]ATP-labelled proteins were visualized by autoradiography of the gels developed on a Phosphorimager screen. The amount of incorporated ^32P was quantified by Cerenkov counting.

A further data set has as its system myc-hMOB1. The data set is described as follows: Co-immunoprecipitation of HA-NDR and myc-hMOB1 from COS-1 cells. Format: binding, human. The note with it: COS-1 cells treated with OA prior to lysis. As to the method: HA-tagged hNDR and myc-tagged hMOB1 were cotransfected in COS1 cells, which were stimulated with okadaic acid or solvent alone. After cell lysis and extract preparation, HA-NDR was immunoprecipitated and co-immunoprecipitated myc-hMOB1 detected or Myc-hMOB1 was immunoprecipitated and co-immunoprecipitated HA-NDR detected.
HA-NDR, wt and mutants, and myc-hMOB1 were cotransfected into COS-1 cells and the cells were treated with OA prior to lysis. HA-NDR was immunoprecipitated and the coimmunoprecipitated myc-hMOB1 detected. […] Furthermore, the two important in vivo phosphorylation sites of NDR, serine-281 in the activation segment and the hydrophobic motif site threonine-444 in the C-terminal regulatory domain were tested, as well as the threonine 74 site in the N-terminal regulatory domain, for their role in NDR-MOB interaction.
HA-NDR N-terminal point mutants and myc-mob1 were co-transfected into COS1 cells which were treated with OA prior to lysis. HA-NDR mutants were immunoprecipitated and coimmunoprecipitated myc-hMOB1 detected.
In this Example, the effect of treatment of COS1 cells with BAPTA-AM on the NDR-MOB Interaction was determined. HA-NDR and myc-MOB1 was cotransfected into COS1 cells and the cells were treated with BAPTA-AM and OA or the solvents alone prior to lysis. HA-NDR was immunoprecipitated and co-immunoprecipitated myc-MOB1 detected. The kinase activity of the HA-NDR immunoprecipitates was measured in a peptide kinase assay.

Regarding “K118A: NDR1 kinase dead mutant, Lys 118 to alanine; GST fusion or HA-tagged”, in the data set on HA-NDR1, the “kinase activity of HA-NDR1 variants, +OA” value turned out to be 0.0204 and the “kinase activity of HA-NDR1 variants, −OA” value is 0.0107. In the data set with GST-NDR1, the “amount of incorporated 32P (autophosphorylation), −S100B” value (“amount of incorporated 32P … −S100B” below) is 0.0076; the “amount of incorporated 32P (autophosphorylation), +S100B” value (“amount of incorporated 32P … +S100B” for short) is 0.0064; the “autophosphorylation rate of GST-NDR1 mutant (in words)” value (from here on “autophosphorylation rate”) is on record as “did not show detectable autophosphorylation”. In addition, the “interaction of HA-NDR variant with myc-hMOB1” value (“interaction of HA-NDR variant” for short) in the data set on myc-hMOB1 is on record as “still able to interact with hMOB1”.
As to “T74A: NDR1 alanine mutant of phosphorylation residue Thr74; GST fusion or HA-tagged”, in the data set on HA-NDR1, the “kinase activity of HA-NDR1 variants, +OA” value turned out to be 1.053 and the “kinase activity of HA-NDR1 variants, −OA” value is given as 0.124. Further, in the data set on GST-NDR1, the “amount of incorporated 32P … −S100B” value is 0.158; the “amount of incorporated 32P … +S100B” value turned out to be 0.2072; the “autophosphorylation rate” value is on record as “negligible reduction”. For the same substance, the “interaction of HA-NDR variant” value in the data set on myc-hMOB1 is listed as “complete absence of interaction with MOB1”. Moreover, the “interaction of HA-NDR variant” value with myc-hMOB1 (listed as threonine 74) was “not tolerated for the interaction with MOB”.
In the case of “T444A: NDR1 alanine mutant of phosphorylation residue Thr444; GST fusion or HA-tagged”, in the data set on HA-NDR1, the “kinase activity of HA-NDR1 variants, +OA” value amounted to 0.6019 and the “kinase activity of HA-NDR1 variants, −OA” value was 0.1067. In addition, in the data set on GST-NDR1, the “amount of incorporated 32P … −S100B” value turned out to be 0.1232; the “amount of incorporated 32P … +S100B” value is 0.2412; the “autophosphorylation rate” value was “significant decrease”. In the data set on myc-hMOB1, the “interaction of HA-NDR variant” value is “still interact with MOB1”.
